The species named for assay [1] is Homo sapiens. Put plainly: Percentage increase of intracellular reactive oxygen species in neuronal cells at 0 uM. It counts as functional.
The species entered for assay [2] is Homo sapiens. Put plainly: Percentage increase of intracellular reactive oxygen species in neuronal cells at 1 uM. It counts as functional.
Assay [3] is filed under the species Homo sapiens. The assay is described as follows: Percentage increase of intracellular reactive oxygen species in neuronal cells at 5 uM. It counts as functional.
The species entered for assay [4] is Homo sapiens. Put plainly: Percentage increase of intracellular reactive oxygen species in neuronal cells at 0.5 uM. It counts as functional.
The species entered for assay [5] is Homo sapiens. The assay is described as follows: Percentage increase of intracellular reactive oxygen species in neuronal cells at 10 uM. It counts as functional.
For assay [6], the species on record is Homo sapiens. The assay is described as follows: Percentage increase of intracellular reactive oxygen species in neuronal cells at 50 uM. It counts as functional.
The species named for assay [7] is Homo sapiens. The assay is described as follows: Percentage increase of intracellular reactive oxygen species in neuronal cells at 0.1 uM. Type of assay: functional.
For assay [8], the species on record is Homo sapiens. Put plainly: Percentage increase of intracellular reactive oxygen species in neuronal cells at 10 uM; Cytotoxicity. It counts as functional.
Assay [9] is filed under the species Homo sapiens. The assay is described as follows: Percentage increase of intracellular reactive oxygen species in neuronal cells at 50 uM; Cytotoxicity. Type of assay: functional.
The target of the next assay is Cholinesterase (Homo sapiens, UniProt P06276).
In a further assay the target is Acetylcholinesterase (Homo sapiens, UniProt P22303).
Acetylcholinesterase, sequence (P22303 whole entry): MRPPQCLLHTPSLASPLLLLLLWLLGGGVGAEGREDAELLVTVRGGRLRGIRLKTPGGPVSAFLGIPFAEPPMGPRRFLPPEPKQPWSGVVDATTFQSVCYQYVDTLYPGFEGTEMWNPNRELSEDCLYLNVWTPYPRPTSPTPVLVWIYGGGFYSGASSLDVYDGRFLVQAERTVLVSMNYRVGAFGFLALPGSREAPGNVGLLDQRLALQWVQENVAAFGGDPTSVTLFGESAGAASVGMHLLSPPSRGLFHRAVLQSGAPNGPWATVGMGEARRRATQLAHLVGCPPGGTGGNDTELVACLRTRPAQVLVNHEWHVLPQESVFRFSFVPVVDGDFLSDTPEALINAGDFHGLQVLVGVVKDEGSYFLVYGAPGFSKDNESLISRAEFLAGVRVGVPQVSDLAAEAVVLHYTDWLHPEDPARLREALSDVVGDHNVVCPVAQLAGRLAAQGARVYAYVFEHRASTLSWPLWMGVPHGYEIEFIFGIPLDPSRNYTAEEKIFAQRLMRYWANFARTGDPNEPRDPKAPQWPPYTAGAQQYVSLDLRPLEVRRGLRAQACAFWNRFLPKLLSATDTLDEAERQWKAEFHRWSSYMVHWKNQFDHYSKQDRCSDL

Cholinesterase, sequence (P06276 whole entry): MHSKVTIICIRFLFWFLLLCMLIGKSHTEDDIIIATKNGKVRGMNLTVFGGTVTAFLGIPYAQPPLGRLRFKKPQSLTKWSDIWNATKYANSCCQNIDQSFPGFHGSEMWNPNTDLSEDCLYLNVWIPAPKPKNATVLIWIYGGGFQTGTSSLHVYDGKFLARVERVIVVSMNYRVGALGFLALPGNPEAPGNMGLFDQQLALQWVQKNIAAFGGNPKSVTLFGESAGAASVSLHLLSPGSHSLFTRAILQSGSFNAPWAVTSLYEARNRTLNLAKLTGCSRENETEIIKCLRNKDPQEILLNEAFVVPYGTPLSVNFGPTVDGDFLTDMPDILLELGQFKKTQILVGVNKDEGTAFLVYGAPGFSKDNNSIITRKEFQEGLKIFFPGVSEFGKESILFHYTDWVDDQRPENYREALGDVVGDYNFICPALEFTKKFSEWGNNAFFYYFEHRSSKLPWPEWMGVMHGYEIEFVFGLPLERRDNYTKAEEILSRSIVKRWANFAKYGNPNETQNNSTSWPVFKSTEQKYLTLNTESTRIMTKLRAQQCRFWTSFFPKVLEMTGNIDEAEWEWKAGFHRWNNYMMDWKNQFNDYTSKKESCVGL
Description for Acetylcholinesterase: Inhibitory concentration against human recombinant acetylcholinesterase

`O=C(CCCCC1CCSS1)NCCCNc1c2c(nc3cc(Cl)ccc13)CCCC2` (racemic) [LIPOCRINE]: the Activity in the assay listed under Homo sapiens [1] is 86%; in the assay listed under Homo sapiens [2] it was 77%; in the assay listed under Homo sapiens [3] it was 61.67%; in the assay listed under Homo sapiens [4], 95%; in the assay listed under Homo sapiens [5], 51.25%; in the assay filed under Homo sapiens [6] it was 30.5%. Also, in the assay filed under Homo sapiens [7], the Activity is listed as 88.75%.
A word on the IC50: it is the concentration that inhibits the measured activity by half. Regarding `NCCCNc1c2c(nc3cc(Cl)ccc13)CCCC2`, the Activity in the assay listed under Homo sapiens [1] was 86%; in the assay listed under Homo sapiens [2] it was 96.67%; in the assay filed under Homo sapiens [3] it was 82.5%; in the assay listed under Homo sapiens [8], “Toxic”; in the assay filed under Homo sapiens [9], “Toxic”; in the assay filed under Homo sapiens [4] it was 99.67%. In the assay listed under Homo sapiens [7], the Activity is reported as 99.5%. Also, the IC50 on Cholinesterase is 2.58 µM.
On to `Nc1c2c(nc3cc(Cl)ccc13)CC(CNC(=O)CCCCC1CCSS1)CC2` (configuration not stated), for which the IC50 against Acetylcholinesterase worked out at 1.09 µM; against Cholinesterase, 0.329 µM.

The record behind these values is ChEMBL document CHEMBL1141170, “Rational approach to discover multipotent anti-Alzheimer drugs” (J Med Chem, 2005).
